# Literature values as cited in PMC10017685 (Nature Communications, 2023).
# Tested on: human erythrocytes
# Design: method as in DBAASP
# Conditions: cited from earlier work
row,Sequence,Class (dedicated toxicity dataset used for toxicity classifier evaluation)
1,GFCWRACVYRNGVRVCYRRCN [DBAASP_17226],0
2,GILKSLLKKLKKIIAK [DBAASP_8908],0
3,GILSKLLKKLKKIIAK [DBAASP_8909],0
4,GILSSLLKKLKKIIAK [DBAASP_8905],0
5,GILSSLLKKLKKWIAK [DBAASP_8917],0
6,GILSSLLKKWKKIIAK [DBAASP_8916],0
7,GILSSLWKKLKKIIAK [DBAASP_8913],0
8,GILSSLWKKLKKWIAK [DBAASP_8918],0
9,GILSSWLKKLKKIIAK [DBAASP_8912],0
10,GIMSSLMKKLAAHIKK [DBAASP_8896],0

# Same assay, conditions: toxicity class label 1 or 0, meaning of the labels not given; DBAASP HC50 data, human erythrocytes; ref DBAASP; cited from earlier work
row,Sequence,Class (dedicated toxicity dataset used for toxicity classifier evaluation)
1,FLPVIASVAAKVLPKVFCFITKKC [DBAASP_6169],1
2,FLQGIIDTVGKWL [DBAASP_18165],0
3,FLQGIWDTVGKWL [DBAASP_18166],0
4,FLQHIIGALGHLF [DBAASP_10244],0
5,FLQHIIGALSHFF [DBAASP_10247],0
6,FLQHIIGALTHIF [DBAASP_10246],0
7,FLRFAGSVIHGAGHLVHHIGVAL [DBAASP_11350],0
8,FLRFIGSVIHGIGHLVHHIGVAL [DBAASP_4193],0
9,FLSAITSILGKFF [DBAASP_13350],0
10,FLSAITSLLGKLL [DBAASP_4212],0
11,FLSALWGVAKSLF [DBAASP_18190],0
12,FLSGIVGMLGKLF [DBAASP_2204],1
13,FLSIIAKVLGSLF [DBAASP_3104],1
14,FLSKIWDGVKSLL [DBAASP_18168],0
15,FLSLALAALPKFLCLVFKKC [DBAASP_1468],1
16,FLSLIPAAISAVSALANHF [DBAASP_10851],0
17,FLSLIPHIASGIASLVKNF [DBAASP_12390],1
18,FLSLIPHIVSGVAALANHL [DBAASP_12391],0
19,FLSLIPHIVSGVASIAKHF [DBAASP_3889],0
20,FLSLIPKAISAISALANHF [DBAASP_12627],0
21,FLSLIPKAISAISALINHF [DBAASP_12628],1
22,FLSLIPKAISAVSALANHF [DBAASP_12626],0
23,FLSLIPKIAGGIAALAKHL [DBAASP_10835],1

row,Sequence,Class (dedicated toxicity dataset used for toxicity classifier evaluation)
1,FLSLIPKIATGIAALAKHL [DBAASP_10833],1
2,FLSLIPKIISAISALIKHF [DBAASP_12630],1
3,FLSLIPKIISAISALINHF [DBAASP_12629],1
4,FLSLLPHIASGIASLVSKF [DBAASP_12382],1
5,FLSSIGKILGNLL [DBAASP_3103],0
6,FLSTALKVAANVVPTLFCKITKKC [DBAASP_1888],0
7,FLSTLLNVASKVVPTLFCKITKKC [DBAASP_1891],0
8,FLSTLLNVASNVVPTLICKITKKC [DBAASP_1890],1
9,FLWALFKVASK [DBAASP_646],0
10,FPFLLSLIPSAISALKKL [DBAASP_18191],0
11,FPLTWLKWWKWKK [DBAASP_17184],0
12,FPVTFRFFKFFKG [DBAASP_9715],0
13,FPVTWGWWKWWKG [DBAASP_9714],0
14,FPVTWKWWKWWKG [DBAASP_7114],0
15,FPVTWPTKWLKG [DBAASP_9721],0
16,FPVTWPTKWRKG [DBAASP_9717],0
17,FPVTWPTKWWEG [DBAASP_9720],0
18,FPVTWPTKWWKG [DBAASP_7115],0
19,FPVTWPTKWWKS [DBAASP_9716],0
20,FPVTWRWWKWWKG [DBAASP_716],0
21,FVDLKKIANIINSIF [DBAASP_6701],0
22,FWGALAKGALKLIPSLFSSFSKKD [DBAASP_948],1
23,FWGFLGKLAMKAVPSLIGGNKK [DBAASP_8440],0

row,Sequence,Class (dedicated toxicity dataset used for toxicity classifier evaluation)
1,FWGFLGKLAMKAVPSLIGGNKSSSK [DBAASP_8439],0
2,FWGKLWEGVKNAI [DBAASP_3480],0
3,FWSTIWNAAKSLI [DBAASP_18164],1
4,FWSTLLSIGKSLL [DBAASP_18163],1
5,GFGMALKLLKKVL [DBAASP_3442],0
6,GFGSLLGKALRLGANVL [DBAASP_3772],0
7,GFKDLLKGAAKALKKTVLF [DBAASP_4908],0
8,GFKDLLKGAAKALVKAVLF [DBAASP_4918],1
9,GFKDLLKGAAKALVKTVKF [DBAASP_4910],0
10,GFKDLLKGAAKALVKTVLF [DBAASP_2302],0
11,GFKDLLKGAAKALVKTVLK [DBAASP_11235],0
12,GFKDLLKGAKKALVKTVLF [DBAASP_4907],0
13,GFKDLLKKAAKALVKTVLF [DBAASP_4906],1
14,GFKKLLKGAAKALVKTVLF [DBAASP_4900],1
15,GFKRIVQKIRDFLRNLV [DBAASP_11852],0
16,GFKRIVQRIKDFLRNLV [DBAASP_6070],0
17,GFLGSLLKTGLKVGSNLL [DBAASP_2293],0
18,GFMSKVANFAKKFAKGGVNAIMNQK [DBAASP_5718],0
19,GFRDVLKGAAKAFVKTVAGHIAN [DBAASP_2304],0
20,GFRKIVQKIRDFLRNLV [DBAASP_11853],0
21,GFWGKLFKLGLHGIGLLHLHL [DBAASP_999],0
22,GFWGKLWEGVKNAI [DBAASP_3479],1
23,GIFDVLKNLAKGVITSLAS [DBAASP_16392],0

row,Sequence,Class (dedicated toxicity dataset used for toxicity classifier evaluation)
1,GIGGALLSFGKSALKGLAKGLAEHF [DBAASP_12131],0
2,GIGKFLHSAKKFGKAFVGEIMNS [DBAASP_5368],0
3,GIGKFLKKAKKFGKAFVKILKK [DBAASP_763],0
4,GIGKHVGKALKGLKGLLKGLGEC [DBAASP_6804],0
5,GIGKHVGKALKGLKGLLKGLGES [DBAASP_3359],0
6,GIIKKIIKKIIKK [DBAASP_13882],0
7,GIIKKIIKKIIKKI [DBAASP_4594],0
8,GIKDLLKGAAKALVKTVLF [DBAASP_11234],0
9,GIKDLLKGAAKALVKTVLK [DBAASP_11236],0
10,GIKDWIKGAAKKLIKTVASHIANQ [DBAASP_2305],0
11,GIKEFAHSLGKFGKAFVGGILNQ [DBAASP_3817],0
12,GIKKWVKGVAKGVAKDLAKKIL [DBAASP_11866],0
13,GILGKLWEGVKSIF [DBAASP_8864],0
14,GILKTIKSIASKLKRKAK [DBAASP_5476],0
15,GILNTIKSIASKLKRKAK [DBAASP_5477],0
16,GILSSLWKKPKKIIAK [DBAASP_8919],0
17,GIMISLMKKLAAHIAK [DBAASP_8898],0
18,GIMSSLMKKLAAHIAK [DBAASP_8893],0
19,GIMSSLMKKLAAIIAK [DBAASP_8899],0
20,GIMSSLMKKLAKHIAK [DBAASP_8895],0
21,GIMSSLMKKLAKIIAK [DBAASP_8900],0
